Data as given in patent US20070192880A1, “Horming response element binding transregulators” (UNIVERSITY OF ROCHESTER, priority 2003, published 2007).
“Also recorded” adds a separate entry of the source.

Columns and labels:
human C3 gene promoter = test: C3 promoter luciferase reporter, COS-1 cells; type: cell-based, African green monkey
Text: Transfection and processing of cells were done as described in legend of FIG. 7. Shown are the mean±SEM of three independent experiments performed in duplicate and expressed as fold changes compare to the parent expression vector (V), which was set to one.
(§1) The CatD and C3 promoters were generated by PCR using pCD3542 (Augereau P. et al. Mol Endocr 8:693-703) and pC3TI (Fan JD. (1996) Mol Endocrinol 10: 1605-16) reporter plasmids as templates, respectively. A fragment of 730 bp [−750 to −22, +1 is referred to the first ATG, (Parker, M. G. (1998) Biochem Soc Symp 63, 45-50)] of the promoter region of CatD gene or 580 bp [−516 to +61, +1 as the transcription start site) of the C3 gene (Tzukerman, M. T. et al. (1994) Mol Endocrinol 8, 21-30)] was generated. PCR fragments were then inserted into the reporter plasmid pGL3-Basic linearized with appropriate restriction enzymes.
(§2) COS-1 cells were transfected with a reporter construct bearing CatD or C3 promoter together with the expression vector bearing none (V, as control), cDNA for ERα or an EBR. Following a transfection, cells were treated without or with 10^−9 M E2 or 10^−7 M 4-OHT for 24 h.

MCF-7 cells = test: cell cycle analysis (FACS, EGFP-positive cells), transfected MCF-7 cells; type: cell-based, human
Method: (§3) Transfection and processing of cells were done as described in legend of FIG. 5.
MDA-MB-231 and MCF-7 cells were grown as described above. Cells were then transiently transfected with the EGFP vector bearing a cDNA for ERα, CDC or an EBA. Twenty-four hours after transfection, cells were collected by trypsinization, washed in phosphate buffered saline (PBS) and fixed with 1% paraformaldehyde in PBS for one hour. Cells were permeabilized in 70% Ethanol overnight and stained with 50 μg/ml propidium iodide (PI, Sigma-Aldrich) for one hour for flow cytometry analysis. Samples were analyzed on a FACS EPICS Elite EPS flow cytometer (Coulter Corp., Hialeah, Fla.). The percentages of cells at G1 phase were assessed among treatment groups and expressed as percent change compared to cells transfected with EGFP vector bearing no cDNA.

[1] = tested on: human Catepsin D (CatD) gene promoter; test: CatD promoter luciferase reporter, COS-1 cells; type: cell-based, African green monkey; settings: without or with 10^−9 M E2 or 10^−7 M 4-OHT, 24 h
Text: Transfection and processing of cells were done as described in legend of FIG. 7. The reporter vector contains the human Catepsin D (CatD) gene promoter that drives the firefly luciferase cDNA expression. The mean±SEM indicates three independent experiments performed in duplicate.
as §1, §2

[2] = tested on: pS2, C3 and Oxytocin promoter constructs; test: pS2, C3 and Oxytocin promoter luciferase reporters, MCF-7 cells; type: cell-based, human; settings: absence or presence of 10^−9 M E2, FIG. 6A
Method: as §3
(§4) Culturing and transfection of the mammalian COS-1 and […] MDA-MB-231 cells were described previously (Muyan, M. et al. (2001) Mol Cell Endocrinol 182,249-263; Yi, P. et al. (2002) Mol Endocrinol 16, 1810-1827), with the exceptions that 48 well cell culture plates were used and Trans-IT LTI transfection reagent (Mirus Corp., Madison, Wis.). Luciferase assays were performed with a Dual Luciferase Assay kit (Promega) according to the manufacture's recornmendations. Steroid hormones and 9-cis retinoic acid were purchased from Sigma-Aldrich (St. Louis, Mo.). For transfection of MDA-MB-231 and MCF-7 cells, the cells were incubated for three days in a phenol red-free DMEM supplemented with 10% charcoal-dextran treated fetal bovine serum (CD-FBS). Cells were transfected with appropriate expression vectors using Lipofectamine 2000 transfection reagent (Invitrogen).

RARα promoter = RARα promoter luciferase reporter, MCF-7 cells; type: cell-based, human; settings: without or with 10^−9 M E2
Method: as §3, §4

[3] = tested on: ERE-driven TATA box promoter; test: luciferase reporter, consensus ERE upstream of TATA box promoter, COS-1 cells; type: cell-based, African green monkey
Text: Proteins were probed with a Flag antibody followed by a fluorescein-conjugated secondary antibody for visualization (FITC). DAPI staining indicates the nucleus. […] (*) denotes mutants with an impaired DNA binding finction, while VP16* depicts the activation function defective construct. The reporter plasmid contained either one (1× ERE) or two copies (2× ERE) of the consensus ERE in tandem located upstream of a simple promoter, TATA box, driving the expression of the firefly luciferase cDNA. The transfection efficiency was monitored by the co-expression of 0.5 ng of a reporter plasmid, pCMV-RL that drives the expression of Renilla luciferase cDNA. Cells were treated with or without 10^−9 M E2 for 24 h. The cell extracts were assayed for luciferase enzymes, and the normalized firefly/Renilla luciferase activities are presented as fold changes compare to the control, which was set to one. Shown are the mean±SEM of three independent experiments performed in duplicate.
Culturing and transfection of the mammalian COS-1 and […] MDA-MB-231 cells were described previously (Muyan, M. et al. (2001) Mol Cell Endocrinol 182,249-263; Yi, P. et al. (2002) Mol Endocrinol 16, 1810-1827), with the exceptions that 48 well cell culture plates were used and Trans-IT LTI transfection reagent (Mirus Corp., Madison, Wis.). […]

4-hydroxytamoxifen [Construct 4-OHT]
effect on C3 promoter reporter enzyme activity (human C3 gene promoter): effectively decreased the transcription induction | cells accumulated in the G1 phase (MCF-7 cells; medium with untreated FBS, 4-OHT 10^−7 M): increased the cell population in the G1 phase | effect on CatD promoter reporter enzyme activity [1]: did not alter the transcription of the reporter enzyme mediated by ERα; also recorded: prevented the E2-ERα complex-mediated augmentation

C[C@]12CC[C@@H]3c4ccc(O)cc4CC[C@H]3[C@@H]1CC[C@@H]2O [Construct E2, estradiol 17β]
reporter enzyme activity from pS2, C3 and Oxytocin promoter constructs [2]: enhanced reporter enzyme activity | G1/S phase transition / cell cycle progression (MCF-7 cells; charcoal-dextran treated FBS, E2 10^−9 M): enhanced the G1/S phase transition | transcriptional response from the RARα promoter (RARα promoter): enhanced the reporter activity

VP16: activation domain of the herpes simplex virion protein VP16 alone, residues 403-490
effect on transcription from ERE-TATA reporter [3]: did not alter the transcription
